Experimental data taken from patent US9889181B2, “Bacteriophage lysin and antibiotic combinations against gram positive bacteria” (priority 2012, dated 2018).
≈ marks a conversion by molar mass, not a printed value. Where two headings read alike, the source gives them in different places.

Columns and labels:
[1] = system: 20 different MSSA and 42 MRSA strains; assay: Time-kill assay, single agents at 1×MIC; format: cell-based, Staphylococcus aureus; conditions: 1×MIC; for comparative kill: up to 6 hours
Procedure: In order to more fully evaluate PlySs2's applicability to clinical Staphylococcal infections, time kill studies were undertaken against numerous Staphylococcus aureus strains, including methicillin resistant and methicillin sensitive strains. Time kill assays were performed according to CLSI methodology (CLSI document M07-A9 column 32 No. 2) on 42 methicillin resistant S. aureus (MRSA) strains and 20 methicillin sensitive S. aureus (MSSA) strains. Cultures of each strain (5.5×10^5-1×10^6 starting inoculum) were treated with PlySs2 lysin and with antibiotics daptomycin, oxacillin or vancomycin for comparison for 6 hours with aeration. MRSA and MSSA strains were treated with PlySs2, daptomycin and vancomycin. MSSA strains were also treated with oxacillin. 1×MIC concentrations of the different antibiotics were utilized, based on published and established antibiotic MIC values. PlySs2 lysin treatment was at approximately 1×MIC as previously determined (see TABLE 2 above). Culture aliquots were removed hourly up to 6 hours (time points taken at 15 and 30 min, 1 hr, 2 hr, 3 hr, 4 hr, 5 hr, and 6 hr) and added to a PBS/charcoal solution (to inactivate each drug), which was then serially diluted and plated for bacterial viability. The resulting log CFU/mL was plotted for each culture. Growth controls were included for each strain and represent bacterial growth in the absence of any antibacterial agent. Exemplary log kill curves for selected MRSA strains are depicted in FIG. 1. Exemplary log kill curves for selected MSSA strains are depicted in FIG. 2.
Rapid-kill kinetics are desirable in the clinical setting to treat patients with fulminant bacterial infections.

[2] = system: MRSA strain MW2 (also strains 738, 832); format: in vivo, BALB/c mice; conditions: FIG. 27E; 10^9 CFU, dosing at 2 hours; vancomycin 110 mg/kg twice daily, PlySs2 5.25 mg/kg
[3] = system: MRSA strains; assay: Time kill assay, PlySs2 and antibiotic alone or in combination; format: cell-based, Staphylococcus aureus; conditions: ½ MIC of PlySs2 or ¼ MIC of vancomycin alone
[4] = system: MRSA Staphylococcus aureus strain (MW2); assay: microbe, parasite or virus in culture; format: cell-based
[5] = system: S. aureus cell envelope; assay: BODIPY-labeled antibiotic cell envelope binding time course; format: cell-based
Excerpt: As a complement to the synergy studies, daptomycin and vancomycin cell envelope-binding was examined using BODIPY-fluorescein-labeled antibiotics in the presence and absence of sub-MIC levels of CF-301.

[6] = system: MRSA strain 269 (MW2); assay: Combination MIC in 15% surfactant (Survanta); format: cell-based, Staphylococcus aureus
[7] = system: MRSA strain MW2 and MSSA strain ATCC 29213; format: cell-based, Staphylococcus aureus
[8] = system: MRSA S. aureus strains; assay: Dual agent MIC assay (PlySs2 and daptomycin); format: cell-based, Staphylococcus aureus

SMILES | comparative kill [1] | 24 hour survival rate [2] [%] | 72 hour survival rate [2] [%] | effect alone at sub-MIC doses up to 6 hours [3] | fold increase in vancomycin MIC ([4]; 25-day, vancomycin-only) [fold] | vancomycin MIC, ending values ([4]; 25 day serial passage, PlySs2 (8 ug/ml) plus vancomycin (three cultures)) [µg/mL] | MIC ([4]; Staphylococcus aureus, MRSA, read-out: vancomycin MIC, starting value, MW2) [µg/mL] | time to cell wall-labeling with BODIPY-labeled vancomycin ([5]; in the presence of CF-301 (⅛^th MIC)) [min] | time to cell wall-labeling with BODIPY-labeled vancomycin ([5]; without CF-301) [min] | time to reach bactericidal levels (≧3-log10 reduction in CFUs) [1] [hours] | effective combination concentration as fraction of the MIC [6] | effective concentration in PlySs2 plus daptomycin combination MIC ([6]; 24 hours) [µg/mL] | time to antibiotic penetration (BODIPY-labeled daptomycin binding) ([5]; in the presence of CF-301 at 1/32nd MIC) [min] | time to antibiotic penetration (BODIPY-labeled daptomycin binding) ([5]; without CF-301) [min] | fold inhibition of MIC in the presence of Survanta ([7]; surfactant concentration of 1.25%) | fold inhibition of MIC in the presence of Survanta ([7]; surfactant up to 15%, vs MIC without surfactant) | MIC alone ([8]; MRSA strain 269 (MW2), single-agent) [µg/mL] | daptomycin MIC with 0.25×MIC PlySs2 ([8]; dual agent MIC assay, strain not named) [µg/mL]
Cc1onc(-c2ccccc2)c1C(=O)N[C@@H]1C(=O)N2[C@@H]1SC(C)(C)[C@@H]2C(=O)O [Oxacillin, oxacillin, reference compound] | least effective | – | – | – | – | – | – | – | – | – | – | – | – | – | – | – | – | –
CN[C@H](CC(C)C)C(=O)N[C@H]1C(=O)N[C@@H](CC(N)=O)C(=O)N[C@H]2C(=O)N[C@H]3C(=O)N[C@H](C(=O)N[C@H](C(=O)O)c4cc(O)cc(O)c4-c4cc3ccc4O)[C@H](O)c3ccc(c(Cl)c3)Oc3cc2cc(c3O[C@@H]2O[C@H](CO)[C@@H](O)[C@H](O)[C@H]2O[C@H]2C[C@](C)(N)[C@H](O)[C@H](C)O2)Oc2ccc(cc2Cl)[C@H]1O [Vancomycin, vancomycin] | – | 20 | 3 | ineffective or poorly effective | 16 | 2 | 1 (≈ 0.69 µM) | ≤ 5 | 30 | – | – | – | – | – | – | – | – | –
CCCCCCCCCC(=O)N[C@@H](Cc1c[nH]c2ccccc12)C(=O)N[C@H](CC(N)=O)C(=O)N[C@@H](CC(=O)O)C(=O)N[C@@H]1C(=O)NCC(=O)N[C@@H](CCCN)C(=O)N[C@@H](CC(=O)O)C(=O)N[C@H](C)C(=O)N[C@@H](CC(=O)O)C(=O)NCC(=O)N[C@H](CO)C(=O)N[C@@H]([C@H](C)CC(=O)O)C(=O)N[C@@H](CC(=O)c2ccccc2N)C(=O)O[C@@H]1C [Daptomycin, reference compound] | most effective against most strains | – | – | – | – | – | – | – | – | 6 | 1/1024 | 0.25 | 15 | 180 | more than 20 fold | up to 256 fold | 1 (≈ 0.617 µM) | 0.0075
